Assay results published in article PMC6941846 (Bioorganic & medicinal chemistry, 2019).
Where two headings read alike, the source gives them in different places.

What was measured:
MELK [1] = molecular target: T1, MELK (Homo sapiens, UniProt Q14680); assay: MELK kinase binding assay
[2] = Microsome stability assay, mouse liver microsomes; format: in vitro ADME; details: 1 μM compound, NADPH
[3] = Microsome stability assay, human liver microsomes; format: in vitro ADME; details: 1 μM compound, NADPH
[4] = Caco-2 permeability assay; format: in vitro ADME; details: 10 μM, pH 7.4, direction not stated
HEK293T cells [5] = details: for reduction in cell number / cells killed: inhibitor 40 nM combined with compound 56 (90 nM or 270 nM)
human β-cells [6] = details: cited from earlier work
in vitro = details: human
HEK293T cells [7] = assay: Constitutive Renilla luciferase; format: cell-based; details: for fold reduction of cytotoxicity (R-Luc CC50): compared to OTS167 / parent; for R-Luc CC50: HEK293T cells, constitutive Renilla luciferase drops by 50%, 48 h; for Index (CC50/EC50), Cytotoxicity / Activity Index: R-Luc CC50 / DYRK1A-Luc EC50, HEK293T
DYRK1A [8] = molecular target: T2, DYRK1A (Homo sapiens, UniProt Q13627); assay: DYRK1A NFAT luciferase response assay; format: cell-based; details: for DYRK1A-Luc EC50: HEK293T reporter cells, NFAT-dependent firefly luciferase, 48 h
468 kinases = assay: Kinome SCAN profile; format: binding; details: 100 nM
DYRK1A [9] = molecular target: T2, DYRK1A; assay: Kinome SCAN profile, DYRK1A; format: binding; details: read-out: DYRK1A residual activity
human β-cells [10] = assay: Human islet β-cell replication
MELK [11] = molecular target: T1, MELK; details: FACS-sorted β-cells, vs vehicle; cited from earlier work

T1 sequence (Q14680 whole entry): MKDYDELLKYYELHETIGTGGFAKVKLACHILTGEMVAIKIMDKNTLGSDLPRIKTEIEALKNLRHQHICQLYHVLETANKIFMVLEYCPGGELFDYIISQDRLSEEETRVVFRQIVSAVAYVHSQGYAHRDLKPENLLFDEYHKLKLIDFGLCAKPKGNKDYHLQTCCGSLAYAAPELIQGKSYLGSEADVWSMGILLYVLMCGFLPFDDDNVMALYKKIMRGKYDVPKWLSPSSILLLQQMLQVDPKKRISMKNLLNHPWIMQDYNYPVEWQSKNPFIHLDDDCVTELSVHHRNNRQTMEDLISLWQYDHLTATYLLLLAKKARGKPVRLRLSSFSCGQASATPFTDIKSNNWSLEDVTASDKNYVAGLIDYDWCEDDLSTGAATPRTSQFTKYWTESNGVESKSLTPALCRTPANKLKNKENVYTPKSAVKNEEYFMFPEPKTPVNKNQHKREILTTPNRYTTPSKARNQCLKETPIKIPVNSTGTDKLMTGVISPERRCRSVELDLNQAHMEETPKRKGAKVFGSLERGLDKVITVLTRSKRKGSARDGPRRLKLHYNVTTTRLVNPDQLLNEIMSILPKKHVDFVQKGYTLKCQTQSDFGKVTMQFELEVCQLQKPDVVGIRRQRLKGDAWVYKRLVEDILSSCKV

## CCOC(=O)c1cnc2ccc(-c3ccncc3)nc2c1N[C@H]1CC[C@H](CN(C)C)CC1 [Compound 56, Ethyl 4-(((trans)-4-((dimethylamino)methyl)cyclohexyl)amino)-6-(pyridin-4-yl)-1,5-naphthyridine-3-carboxylate]
MELK [1]
  Kd: 15 nM
[2]
  MLM t1/2: readily metabolized
[3]
  HLM t1/2: readily metabolized
[4]
  Caco-2: 4.03 1 x 10^−6 cm/s
HEK293T cells [5]; 56 alone at 30 nM, 90 nM or 270 nM, 48 h
  cytotoxicity (cell number): no cytotoxicity

## CC(C)Oc1ccc(F)c(-c2cnc(N)c(C(=O)Nc3cnccc3N3CCC[C@@H](C(=O)O)C3)n2)c1 [GNF-4877]
Human β-cells [6]
  human β-cell replication induction-potency [ECmin]: ~ 100 nM

## O=C(NC[C@H](O)CO)c1ccncc1Nc1ccc(I)cc1F [AS-703026]
HEK293T cells [5]; inhibitor 10 uM combined with 56 (90 nM), 48 h
  cells killed: 6%

## Cn1c(=O)c(F)c(Nc2ccc(I)cc2F)c2c(=O)n(C[C@@H](O)CO)cnc21 [TAK-733]
HEK293T cells [5]; TAK-733 10 uM combined with 56 (30 nM, 90 nM, or 270 nM)
  cytotoxicity in combination: did not exhibit cytotoxicity
HEK293T cells [5]; inhibitor alone at 10 uM, 48 h
  cells killed: did not exhibit cytotoxicity

## CCCCNC(=O)c1cnc2ccc(-c3cc(Cl)c(O)c(Cl)c3)nc2c1N[C@H]1CC[C@H](C(=O)N2CCOCC2)CC1 [Compound 47]
[4]
  Caco-2: 9.1 1 x 10^−6 cm/s

## O=C(O)[C@]1(Cc2cccc(Nc3nccs3)n2)CC[C@@H](Oc2cccc(Cl)c2F)CC1 [MK-5108]
HEK293T cells [5]; MK 3 μM with 56 at 30 nM, 48 h
  cells killed: 31%
HEK293T cells [5]; MK 3 μM with 56 at 90 nM, 48 h
  cells killed: 36%
HEK293T cells [5]; MK 3 μM with 56 at 270 nM, 48 h
  cells killed: 34%
In vitro; HEK293T cells
  CC50 at 48 h: > 10000 nM

## CCOC(=O)c1cnc2ccc(-c3cc(Cl)c(O)c(Cl)c3)nc2c1NC1CCN(C)CC1 [Compound 34, Ethyl 6-(3,5-dichloro-4-hydroxyphenyl)-4-((1-methylpiperidin-4-yl)amino)-1,5-naphthyridine-3-carboxylate]
HEK293T cells [7]; compared to OTS167
  fold increase in the Cytotoxicity / Activity Index: ~ 13 fold
HEK293T cells [7]; HEK293T
  fold reduction of cytotoxicity (R-Luc CC50): ~ 16 fold
[4]
  Caco-2: 4.6 1 x 10^−6 cm/s

## CCOC(=O)c1cnc2ccc(-c3cc(Cl)cc(Cl)c3)nc2c1N[C@H]1CC[C@H](CN(C)C)CC1 [Compound 50, Ethyl 6-(3,5-dichlorophenyl)-4-(((trans)-4-((dimethylamino)methyl)cyclohexyl)amino)-1,5-naphthyridine-3-carboxylate]
DYRK1A [8]
  DYRK1A-Luc EC50: abrogated DYRK1A-inhibition

## CCOC(=O)c1cnc2ccc(-c3cc(Cl)c(O)c(Cl)c3)nc2c1N1CCCCC1 [Compound 35, Ethyl 6-(3,5-dichloro-4-hydroxyphenyl)-4-(piperidin-1-yl)-1,5-naphthyridine-3-carboxylate]
DYRK1A [8]
  DYRK1A-Luc EC50: reduced DYRK1A inhibition potency
HEK293T cells [7]
  R-Luc CC50: reduced cytotoxicity

## CCN(CCO)CCCOc1ccc2c(Nc3cc(CC(=O)Nc4cccc(F)c4)[nH]n3)ncnc2c1 [AZD-1152-HQPA]
HEK293T cells [5]; 48 h
  reduction in cell number / cells killed: 67%
In vitro
  CC50 at 48 h: 38.9 nM

## CCOC(=O)c1cnc2ccc(-c3cc(Cl)c(O)c(Cl)c3)nc2c1N[C@H]1CC[C@H](CN(C)C)CC1 [Compound 15, Ethyl-6-(3,5-dichloro-4-hydroxyphenyl)-4-(((trans)-4 ((dimethylamino)methyl)cyclohexyl)amino)-1,5-naphthyridine-3-carboxylate]
HEK293T cells [7]; HEK293T
  fold reduction of cytotoxicity (R-Luc CC50): ~ 3 fold

## CC(=O)c1cnc2ccc(-c3cc(Cl)c(O)c(Cl)c3)nc2c1N[C@H]1CC[C@H](CN(C)C)CC1 [Compound 5]
468 kinases
  kinases inhibited to less than 35% of baseline activity: 189/403
  kinases with <1% residual activity: 69/403
DYRK1A [9]
  remaining binding at 0.1 µM: < 1%
Human β-cells [10]
  dose range in which β-cell replication occurred: 5 to 40 nM

## CCOC(=O)c1cnc2ccc(-c3cc(C)c(O)c(C)c3)nc2c1N[C@H]1CC[C@H](CN(C)C)CC1 [Compound 52, Ethyl 4-(((trans)-4-((dimethylamino)methyl)cyclohexyl)amino)-6-(4-hydroxy-3,5-dimethylphenyl)-1,5-naphthyridine-3-carboxylate]
HEK293T cells [7]
  Index (CC50/EC50), Cytotoxicity / Activity Index: > 842

## CCOC(=O)c1cnc2ccc(-c3cc(Cl)c(O)c(Cl)c3)nc2c1N1CCOCC1 [Compound 37, Ethyl 6-(3,5-dichloro-4-hydroxyphenyl)-4-morpholino-1,5-naphthyridine-3-carboxylate]
DYRK1A [8]
  DYRK1A-Luc EC50: reduced DYRK1A inhibition potency
HEK293T cells [7]
  R-Luc CC50: reduced cytotoxicity

## CCNC(=O)c1cnc2ccc(-c3ccnc(N)c3)nc2c1N[C@H]1CC[C@H](CN(C)C)CC1 [Compound 60, 6-(2-Aminopyridin-4-yl)-4-(((trans)-4-((dimethylamino)methyl)cyclohexyl)amino)-N-ethyl-1,5-naphthyridine-3-carboxamide]
DYRK1A [8]
  DYRK1A-Luc EC50: maintained good DYRK1A activity

## CN(C)C[C@H]1CC[C@H](Nc2c(C#N)cnc3ccc(-c4cc(Cl)c(O)c(Cl)c4)nc23)CC1 [Compound 16, 6-(3,5-Dichloro-4-hydroxyphenyl)-4-(((trans)-4-((dimethylamino)methyl)cyclohexyl)amino)-1,5-naphthyridine-3-carbonitrile]
DYRK1A [8]; compared to OTS167
  fold reduction in DYRK1A inhibition potency: ~ 9 fold
HEK293T cells [7]
  R-Luc CC50: virtually non-toxic

## CCOC(=O)c1cnc2ccc(-c3cc(Cl)c(O)c(Cl)c3)nc2c1N[C@H]1CC[C@H](C)CC1 [Compound 32, Ethyl 6-(3,5-dichloro-4-hydroxyphenyl)-4-(((trans)-4-methylcyclohexyl)amino)-1,5-naphthyridine-3-carboxylate]
DYRK1A [8]
  DYRK1A-Luc EC50: eliminated cellular activity

## O=C(O)c1ccc(Nc2ncc3c(n2)-c2ccc(Cl)cc2C(c2c(F)cccc2F)=NC3)cc1 [MLN-8054]
HEK293T cells [5]; 48 h
  reduction in cell number / cells killed: 50%
In vitro
  CC50 at 48 h: 55.1 nM

## CCOC(=O)c1cnc2ccc(-c3cc(Cl)c(O)c(Cl)c3)nc2c1N[C@H]1CC[C@H](CC(N)=O)CC1 [Compound 49, Ethyl 4-(((trans)-4-(2-amino-2-oxoethyl)cyclohexyl)amino)-6-(3,5-dichloro-4-hydroxyphenyl)-1,5-naphthyridine-3-carboxylate]
[4]
  Caco-2: 0.01 1 x 10^−6 cm/s

## Nc1ncnc2c1c(I)cn2[C@@H]1O[C@H](CO)[C@@H](O)[C@H]1O [Compound 5-IT, 5-iodotubercidin]
Human β-cells [6]
  human β-cell replication induction-potency [ECmin]: ~ 100 nM

## CCOC(=O)c1cnc2ccc(-c3cc(Cl)c(O)c(Cl)c3)nc2c1N[C@H]1CC[C@H](C(=O)N(C)C)CC1 [Compound 42, Ethyl 6-(3,5-dichloro-4-hydroxyphenyl)-4-(((trans)-4-(dimethylcarbamoyl)cyclohexyl)amino)-1,5-naphthyridine-3-carboxylate]
[4]
  Caco-2: 0.12 1 x 10^−6 cm/s

## COc1ccc2c(c1)[nH]c1c(C)nccc12 [Harmine, harmine]
Human β-cells [6]
  human β-cell replication induction-potency [ECmin]: ~ 3,000 nM

## CCOC(=O)c1cnc2ccc(-c3cc(Cl)c(O)c(Cl)c3)nc2c1N1CCC(C)CC1 [Compound 36, Ethyl 6-(3,5-dichloro-4-hydroxyphenyl)-4-(4-methylpiperidin-1-yl)-1,5-naphthyridine-3-carboxylate]
DYRK1A [8]
  DYRK1A-Luc EC50: reduced DYRK1A inhibition potency
HEK293T cells [7]
  R-Luc CC50: reduced cytotoxicity

## CCOC(=O)c1cnc2ccc(-c3ccnc(N)c3)nc2c1N[C@H]1CC[C@H](CN2CCOCC2)CC1 [Compound 63, Ethyl 6-(2-aminopyridin-4-yl)-4-(((trans)-4-(morpholinomethyl)cyclohexyl)amino)-1,5-naphthyridine-3-carboxylate]
[2]
  MLM t1/2: readily metabolized
[3]
  HLM t1/2: readily metabolized
[4]
  Caco-2: 2.7 1 x 10^−6 cm/s

## CCOC(=O)c1cnc2ccc(-c3cc(Cl)c(O)c(Cl)c3)nc2c1Nc1ccc(CN(C)C)cc1 [Compound 27, Ethyl 6-(3,5-dichloro-4-hydroxyphenyl)-4-((4-((dimethylamino)methyl)phenyl)amino)-1,5-naphthyridine-3-carboxylate]
DYRK1A [8]
  DYRK1A-Luc EC50: maintained DYRK1A inhibition potency
HEK293T cells [7]; HEK293T
  fold reduction of cytotoxicity (R-Luc CC50): ~ 60 fold

## CCOC(=O)c1cnc2ccc(-c3cc(Cl)c(O)c(Cl)c3)nc2c1N1CCNCC1 [Compound 38, Ethyl 6-(3,5-dichloro-4-hydroxyphenyl)-4-(piperazin-1-yl)-1,5-naphthyridine-3-carboxylate]
DYRK1A [8]
  DYRK1A-Luc EC50: reduced DYRK1A inhibition potency
HEK293T cells [7]; HEK293T
  fold less toxic than butyl amide counterpart (R-Luc CC50): 7 fold
HEK293T cells [7]
  R-Luc CC50: reduced cytotoxicity
  Index (CC50/EC50), Cytotoxicity / Activity Index: 137

## c1cc(OCCN2CCCCC2)cc(-c2n[nH]c3ccc(-c4nc[nH]n4)cc23)c1 [CC-401]
MELK [11]
  induction of MELK expression: 2.6 fold
